Assay results taken from patent US20080057003A1, “Powder inhaler formulations” (priority 2001, published 2008).

Test: Triboelectrification in a cyclone separator (specific charge, mass transport, adhesion)
Format: physicochemical
Details: for specific charge: untreated micronized drug, stainless steel cyclone, FIG. 1 / FIG. 3
Description: In the processing of micronized or microfine active substances for DPI, it is common to subject the powder to a sieving process in order to remove large agglomerates prior to mixing with the carrier particles used in the DPI formulation. […] The experimental method for electrostatic charge determinations that was applied is outlined in more detail below.
Electrostatic charge of powder samples was investigated using a cyclone apparatus linked to a Faraday well and force compensation load cell to measure charge and mass simultaneously. 1 g samples of powder were transported through the apparatus using dry compressed air (rh<10%) at 8 m s^−1 for triboelectrification against a stainless steel surface.
The charge Q (nC) and mass M (g) values were used to calculate the specific charge Q/M (nC g^−1) at the completion of each experimental run. The results are mean values with coefficient of variation values for 5 replicates. The mass of material entering the Faraday well was used to quantify the mass transport through the apparatus and this was used to assess the flow and adhesion characteristics of the powder. In addition, the amount of material adhered to the cyclone wall was estimated visually and rated on a scale from 0 (no adhesion) to 3 (extensive adhesion).
Approximately 10 g of drug powder samples were placed in a 60M (250 μm) sieve and agitated using a sieve shaker (Glen Creston, 47-300) with an oscillation amplitude regulator at setting 20 for 20 minutes. Sieved powder samples were stored in glass jars and then kept in a desiccator for a week prior to charge investigations in the cyclone.

[1] = sieved samples, tiotropium treated with sorbitan derivative at 600 mg l^−1, or untreated, cyclone

| SMILES | Mean charge (cv %) [1] | Mean mass transfer (cv %) [1] | specific charge (sieved) | specific charge (unsieved) |
| --- | --- | --- | --- | --- |
| C[N+]1(C)[C@@H]2C[C@@H](OC(=O)C(O)(c3cccs3)c3cccs3)C[C@H]1[C@@H]1O[C@@H]12 [tiotropium, Tiotropium] | +201 (3.2) nC g^−1 | 2.5 (8.0) % | +201 nC g^−1 | +52 nC g^−1 |
| CC(Cc1ccc(O)cc1)NCC(O)c1cc(O)cc(O)c1 (stereo not drawn) [fenoterol, Fenoterol] | – | – | −92 nC g^−1 | −40 nC g^−1 |
